Experimental data reported in the supplement of paper PMC10307832.

Experiments:
Experiment in all cases: relative viability (nuclei count vs DMSO), 5 days (fraction); higher = more cells survive
Bortezomib + Olaparib = compound: CC(C)C[C@H](NC(=O)[C@H](Cc1ccccc1)NC(=O)c1cnccn1)B(O)O [Bortezomib] + O=C(c1cc(Cc2n[nH]c(=O)c3ccccc23)ccc1F)N1CCN(C(=O)C2CC2)CC1 [Olaparib] (partner 8 µM)
Summary of the method: (§1)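 Lung cancer cell lines, seeded in 1536-well plates, were treated the following day by pin tool with a single drug or with five library-drug doses (not always all listed) in √10 steps on top of a fixed anchor-drug dose. Cells were fixed and nuclei stained in one step after 5 days, and nuclei were counted. Relative viability is the nuclei count for treated wells divided by that for vehicle wells, reported as medians of duplicate plates.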

Bortezomib + Tozasertib = compound: CC(C)C[C@H](NC(=O)[C@H](Cc1ccccc1)NC(=O)c1cnccn1)B(O)O [Bortezomib] + Cc1cc(Nc2cc(N3CCN(C)CC3)nc(Sc3ccc(NC(=O)C4CC4)cc3)n2)n[nH]1 [Tozasertib] (partner 0.1 µM)
Summary of the method: as §1

Obatoclax + Dasatinib = compound: COC1=CC(c2cc3ccccc3[nH]2)=N/C1=C\c1[nH]c(C)cc1C [Obatoclax] + Cc1nc(Nc2ncc(C(=O)Nc3c(C)cccc3Cl)s2)cc(N2CCN(CCO)CC2)n1 [Dasatinib] (partner 0.075 µM)
Summary of the method: as §1

Obatoclax + Alpelisib = compound: COC1=CC(c2cc3ccccc3[nH]2)=N/C1=C\c1[nH]c(C)cc1C [Obatoclax] + Cc1nc(NC(=O)N2CCC[C@H]2C(N)=O)sc1-c1ccnc(C(C)(C)C(F)(F)F)c1 [Alpelisib] (partner 2 µM)
Summary of the method: as §1

| Cell Line | relative viability (Bortezomib + Olaparib; first compound 0.0002 µM) | relative viability (Bortezomib + Olaparib; first compound 0.000632 µM) | relative viability (Bortezomib + Olaparib; first compound 0.002 µM) | relative viability (Bortezomib + Olaparib; first compound 0.006325 µM) | relative viability (Bortezomib + Olaparib; first compound 0.02 µM) | relative viability (Bortezomib + Tozasertib; first compound 0.0002 µM) | relative viability (Bortezomib + Tozasertib; first compound 0.000632 µM) | relative viability (Bortezomib + Tozasertib; first compound 0.002 µM) | relative viability (Bortezomib + Tozasertib; first compound 0.006325 µM) | relative viability (Bortezomib + Tozasertib; first compound 0.02 µM) | relative viability (Obatoclax + Dasatinib; first compound 0.01 µM) | relative viability (Obatoclax + Dasatinib; first compound 0.03162 µM) | relative viability (Obatoclax + Dasatinib; first compound 0.1 µM) | relative viability (Obatoclax + Dasatinib; first compound 0.3162 µM) | relative viability (Obatoclax + Dasatinib; first compound 1 µM) | relative viability (Obatoclax + Alpelisib; first compound 0.01 µM) | relative viability (Obatoclax + Alpelisib; first compound 0.03162 µM) | relative viability (Obatoclax + Alpelisib; first compound 0.1 µM) | relative viability (Obatoclax + Alpelisib; first compound 0.3162 µM) | relative viability (Obatoclax + Alpelisib; first compound 1 µM) |
| --- | --- | --- | --- | --- | --- | --- | --- | --- | --- | --- | --- | --- | --- | --- | --- | --- | --- | --- | --- | --- |
| NCI-H1651 | 0.181 | 0.194 | 0.144 | 0.0868 | 0.0799 | 0.694 | 0.72 | 0.619 | 0.099 | 0.101 | 0.563 | 0.376 | 0.372 | 0.293 | 0.187 | 0.884 | 0.765 | 1.04 | 0.611 | 0.236 |
| NCI-H1666 | 0.684 | 0.783 | 0.697 | 0.511 | 0.45 | 0.558 | 0.664 | 0.51 | 0.296 | 0.261 | 0.819 | 0.809 | 0.727 | 0.496 | 0.418 | 0.93 | 0.903 | 0.881 | 0.255 | 0.223 |
| NCI-H1734 | 0.555 | 0.661 | 0.443 | 0.115 | 0.0968 | 0.263 | 0.295 | 0.276 | 0.133 | 0.093 | 0.493 | 0.287 | 0.427 | 0.375 | 0.2 | 0.682 | 0.619 | – | 0.57 | 0.511 |
| NCI-H1755 | 0.845 | 0.896 | 0.828 | 0.241 | 0.207 | 0.571 | 0.612 | 0.566 | 0.193 | 0.157 | 0.425 | 0.402 | 0.335 | 0.44 | 0.397 | 0.871 | 0.906 | 0.871 | 0.871 | 0.889 |
| NCI-H1793 | 0.848 | – | 0.904 | 0.276 | 0.126 | 0.316 | 0.299 | 0.444 | 0.252 | 0.102 | 0.404 | 0.405 | 0.321 | 0.395 | 0.418 | 0.702 | 0.629 | 0.885 | 0.678 | 0.795 |
| NCI-H1915 | 0.251 | 0.257 | 0.244 | 0.056 | 0.0357 | 0.428 | 0.448 | 0.416 | 0.0502 | 0.0519 | 0.314 | 0.271 | 0.318 | 0.329 | 0.282 | 1.05 | 0.965 | 0.993 | 1.08 | 1.05 |
| NCI-H1944 | 0.419 | 0.392 | 0.414 | 0.331 | 0.142 | 0.234 | 0.248 | 0.247 | 0.195 | 0.136 | 0.206 | 0.198 | 0.198 | 0.242 | 0.223 | 0.808 | 0.817 | 0.859 | 0.89 | 0.839 |
| NCI-H1975 | 0.779 | 0.766 | 0.16 | 0.103 | 0.126 | 0.676 | 0.831 | 0.099 | 0.0653 | 0.088 | 0.439 | 0.389 | – | 0.351 | 0.153 | 0.629 | 0.666 | 0.663 | 0.476 | 0.182 |
| NCI-H1993 | 1.01 | 1.01 | 0.679 | 0.363 | 0.398 | 0.595 | 0.635 | 0.576 | 0.454 | 0.448 | 0.616 | 0.549 | 0.748 | 0.499 | 0.395 | 0.704 | 0.648 | 0.682 | 0.667 | 0.6 |
| NCI-H2009 | 0.654 | 0.661 | 0.693 | 0.222 | 0.049 | 0.725 | 0.807 | 0.704 | 0.229 | 0.0821 | 0.297 | 0.367 | 0.252 | 0.208 | 0.197 | 1.08 | 1.16 | 1.19 | 1.13 | 0.286 |
| NCI-H2023 | 0.427 | 0.473 | 0.485 | 0.0778 | 0.0633 | 0.305 | 0.356 | 0.428 | 0.329 | 0.0545 | 0.518 | 0.548 | 0.53 | 0.412 | 0.194 | 0.603 | 0.667 | 0.578 | 0.605 | 0.334 |
| NCI-H2085 | 0.8 | 0.802 | 0.688 | 0.232 | 0.211 | 0.873 | 0.872 | 0.697 | 0.302 | 0.281 | 0.256 | 0.205 | 0.508 | 0.256 | 0.226 | 0.89 | 0.925 | 0.98 | 0.57 | 0.29 |
| NCI-H2087 | 0.634 | 0.672 | 0.286 | 0.0419 | 0.0226 | 0.236 | 0.276 | 0.19 | 0.0648 | 0.0487 | 0.837 | 0.747 | 0.723 | 0.361 | 0.135 | 0.738 | 1.18 | 0.953 | 0.854 | 0.354 |
| NCI-H2126 | 0.851 | 0.903 | 0.9 | 0.794 | 0.184 | 0.815 | 0.921 | 0.763 | 0.488 | 0.214 | 0.675 | 0.538 | 0.524 | 0.613 | 0.536 | 0.779 | 0.752 | 0.743 | 0.769 | 0.714 |
| NCI-H2170 | 0.583 | 0.576 | 0.584 | 0.11 | 0.102 | 0.658 | 0.718 | 0.783 | 0.178 | 0.145 | 0.626 | 0.617 | 0.528 | 0.529 | 0.677 | 0.777 | 0.749 | 0.825 | 0.724 | 0.683 |
| NCI-H2228 | 0.541 | 0.615 | 0.289 | 0.0866 | 0.0966 | 0.232 | 0.231 | 0.251 | 0.0818 | 0.102 | 0.499 | 0.595 | 0.571 | 0.351 | 0.148 | 0.662 | 0.601 | 0.629 | 0.436 | 0.27 |
